The text below walks through data of US11136295B2, “D-amphetamine compounds, compositions, and processes for making and using the same” (KemPharm, Inc., priority 2018, dated 2021).

Series [1] is described as follows: Intravenous pharmacokinetic study in rats (tail vein; plasma d-amphetamine by LC-MS/MS). In kind it is in vivo, rat. Conditions: for AUC0-2 hr / Cmax / Tmax: d-amphetamine in plasma, rat, intravenous (tail vein), 5.6 μmol/kg, sampled to 2 hours. As to the method:
Conjugates of d-amphetamine, and d-amphetamine sulfate or lisdexamfetamine dimesylate comparator compound were dissolved in an appropriate vehicle and administered in rats at doses of 5.6 μmol/kg by injecting the solution into the tail vein. Whole blood samples were collected via retro-orbital bleeding at 5 minutes and at 0.25, 0.5, 1 and 2 hours postdose. Blood samples were centrifuged and the resulting plasma samples were collected for analysis of […] concentrations by LC-MS/MS.

Series [2] in a line: Oral pharmacokinetic study in rats (plasma amphetamine by LC-MS/MS). In kind it is in vivo. The note with it: d-amphetamine in plasma; rat, oral gavage, 5.6 μmol/kg; 6-hour time course. As for the experimental part: Conjugates of d-amphetamine, and d-amphetamine sulfate or lisdexamfetamine dimesylate comparator compound were dissolved in an appropriate vehicle and administered in rats via oral gavage at doses of 5.6 μmol/kg. Whole blood samples were collected via retro-orbital bleeding at 0.25, 0.5, 1, 2, 4, and optionally at 3 and 6 hours postdose. Blood samples were centrifuged and the resulting plasma samples were collected for analysis of amphetamine concentrations by LC-MS/MS.

The nature of series [3]: Intranasal pharmacokinetic study in rats (plasma amphetamine by LC-MS/MS). The note with it: d-amphetamine in plasma, rat, 4-hour time course. In kind it is in vivo.

By melting point is commonly meant the temperature, or range, at which the solid turns liquid. Compound `C[C@@H](Cc1ccccc1)NC(=O)OC[n+]1ccc(C(=O)O)cc1` [AMP-CO2CH2-isonicotinate, d-amphetamine-CO2CH2-isonicotinate] registered a melting point of 168 to 170 °C.
What is called Cmax is the maximum level reached in the sampled fluid or tissue. In general, Tmax refers to the time at which the peak concentration occurs. Regarding `CCOC(=O)C(C)NC(=O)c1cc[n+](COC(=O)N[C@@H](C)Cc2ccccc2)cc1` (stereo partly drawn) [AMP-CO2CH2-isonicotinoyl-Ala-OEt, d-amphetamine-CO2CH2-isonicotinoyl-alanine ethyl ester], in series [1], the AUC0-2 hr is 32.4 ng·h/mL, the Cmax is recorded as 24.7 ng/mL and the Tmax is 31.2 min. In addition, in series [2], the AUC0-4 hr is 72.8 ng·h/mL, the AUC0-6 hr was determined as 105.7 ng·h/mL, the Cmax is recorded as 28.5 ng/mL and the Tmax worked out at 120 min.
On to `CC(C)[C@H](NC(=O)c1cc[n+](COC(=O)N[C@@H](C)Cc2ccccc2)cc1)C(N)=O` [AMP-CO2CH2-isonicotinoyl-Val-NH2, d-amphetamine-CO2CH2-isonicotinoyl-valinamide], for which the “exposure to d-amphetamine after intravenous administration compared to the nicotinoyl analogue” value in series [1] (intravenous, compared to AMP-CO2CH2-nicotinoyl-Val-NH2, FIG. 32) is recorded as “decreases exposure to d-amphetamine”.
Take “d-amphetamine-CO2CH2-isonicotinate ethyl ester [AMP-CO2CH2-isonicotinate(Et)]”: in series [1], the AUC0-2 hr worked out at 26.5 ng·h/mL, the Cmax was 18.8 ng/mL and the Tmax came out at 43.2 min. For the same compound, in series [3], the AUC0-1 hr came to 8.6 ng·h/mL, the AUC0-4 hr came out at 32.6 ng·h/mL, the Cmax was 11.1 ng/mL and the Tmax turned out to be 37.8 min. In series [2], the AUC0-4 hr was 75.4 ng·h/mL, the AUC0-6 hr came out at 106.6 ng·h/mL, the Cmax is given as 26.0 ng/mL and the Tmax was determined as 90 min.
